Experimental data: ChEMBL document CHEMBL5291721, “A preclinical secondary pharmacology resource illuminates target-adverse drug reaction associations of marketed drugs” (Nat Commun, 2023)

Experiments:
Adenosine receptor A2a = Adenosine receptor A2a (Homo sapiens, UniProt P29274)
Endothelin-1 receptor = biological target: T1, Endothelin-1 receptor (Homo sapiens, UniProt P25101)
T1 sequence (P25101 whole entry): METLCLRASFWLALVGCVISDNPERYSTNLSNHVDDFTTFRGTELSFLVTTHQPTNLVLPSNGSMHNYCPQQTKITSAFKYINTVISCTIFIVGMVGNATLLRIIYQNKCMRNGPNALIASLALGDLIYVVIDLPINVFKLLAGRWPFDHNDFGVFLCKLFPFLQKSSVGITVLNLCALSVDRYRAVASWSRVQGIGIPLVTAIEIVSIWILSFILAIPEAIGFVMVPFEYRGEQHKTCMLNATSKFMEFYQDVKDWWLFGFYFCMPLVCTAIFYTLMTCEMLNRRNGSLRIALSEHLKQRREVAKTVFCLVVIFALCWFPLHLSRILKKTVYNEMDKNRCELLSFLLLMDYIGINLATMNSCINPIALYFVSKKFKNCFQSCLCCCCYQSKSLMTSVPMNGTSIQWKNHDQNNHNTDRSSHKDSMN

[1] = biological target: Sodium-dependent noradrenaline transporter (Homo sapiens, UniProt P23975)
[2] = biological target: 3',5'-cyclic-AMP phosphodiesterase 4D (Homo sapiens, UniProt Q08499); assay type: functional
[3] = biological target: T2, Cholecystokinin receptor type A (Homo sapiens, UniProt P32238)
T2 sequence (P32238 whole entry): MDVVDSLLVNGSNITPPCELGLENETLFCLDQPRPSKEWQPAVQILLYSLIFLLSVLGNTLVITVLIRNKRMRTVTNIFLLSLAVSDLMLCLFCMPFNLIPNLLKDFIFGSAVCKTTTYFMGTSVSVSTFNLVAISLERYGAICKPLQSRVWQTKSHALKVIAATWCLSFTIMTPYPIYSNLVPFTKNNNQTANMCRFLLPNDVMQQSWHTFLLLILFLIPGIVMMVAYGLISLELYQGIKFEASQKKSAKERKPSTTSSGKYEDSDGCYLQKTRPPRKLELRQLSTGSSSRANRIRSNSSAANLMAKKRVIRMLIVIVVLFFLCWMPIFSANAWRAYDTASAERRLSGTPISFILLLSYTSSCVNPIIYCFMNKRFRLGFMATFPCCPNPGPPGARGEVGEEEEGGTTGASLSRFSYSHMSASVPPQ

[4] = biological target: Voltage-gated inwardly rectifying potassium channel KCNH2 (Homo sapiens, UniProt Q12809); assay type: functional; details: read-out: AC50
[5] = biological target: Beta-1 adrenergic receptor (Homo sapiens, UniProt P08588); assay type: functional
Adenosine receptor A3 = biological target: T3, Adenosine receptor A3 (Homo sapiens, UniProt P0DMS8)
T3 sequence (P0DMS8 whole entry): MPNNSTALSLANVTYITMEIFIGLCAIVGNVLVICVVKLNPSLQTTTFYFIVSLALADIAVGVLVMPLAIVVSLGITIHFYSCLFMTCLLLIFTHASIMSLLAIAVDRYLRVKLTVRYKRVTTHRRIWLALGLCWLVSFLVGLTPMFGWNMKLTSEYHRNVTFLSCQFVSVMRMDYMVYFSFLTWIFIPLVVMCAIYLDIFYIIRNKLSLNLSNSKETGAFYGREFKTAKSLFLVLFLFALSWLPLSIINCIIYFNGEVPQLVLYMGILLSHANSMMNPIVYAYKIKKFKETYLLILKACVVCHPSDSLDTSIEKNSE

[6] = biological target: T4, Muscarinic acetylcholine receptor M2 (Homo sapiens, UniProt P08172); assay type: functional, cell-based
T4 sequence (P08172 whole entry): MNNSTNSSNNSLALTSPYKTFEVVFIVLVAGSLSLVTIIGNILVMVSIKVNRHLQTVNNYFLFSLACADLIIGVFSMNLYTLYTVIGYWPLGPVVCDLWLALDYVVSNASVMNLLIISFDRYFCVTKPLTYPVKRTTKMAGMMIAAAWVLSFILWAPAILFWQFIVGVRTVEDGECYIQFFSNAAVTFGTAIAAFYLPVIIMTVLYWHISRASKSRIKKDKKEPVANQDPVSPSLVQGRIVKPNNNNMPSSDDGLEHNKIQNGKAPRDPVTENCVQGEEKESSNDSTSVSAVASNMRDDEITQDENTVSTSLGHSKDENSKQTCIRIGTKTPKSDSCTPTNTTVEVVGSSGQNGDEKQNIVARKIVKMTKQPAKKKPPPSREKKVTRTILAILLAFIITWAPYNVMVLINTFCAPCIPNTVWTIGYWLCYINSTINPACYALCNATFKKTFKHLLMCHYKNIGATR

[7] = biological target: cGMP-inhibited 3',5'-cyclic phosphodiesterase 3A (Homo sapiens, UniProt Q14432); assay type: functional
D(3) dopamine receptor = D(3) dopamine receptor (Homo sapiens, UniProt P35462)
[8] = biological target: T5, 5-hydroxytryptamine receptor 1A (Homo sapiens, UniProt P08908); assay type: functional, cell-based
T5 sequence (P08908 whole entry): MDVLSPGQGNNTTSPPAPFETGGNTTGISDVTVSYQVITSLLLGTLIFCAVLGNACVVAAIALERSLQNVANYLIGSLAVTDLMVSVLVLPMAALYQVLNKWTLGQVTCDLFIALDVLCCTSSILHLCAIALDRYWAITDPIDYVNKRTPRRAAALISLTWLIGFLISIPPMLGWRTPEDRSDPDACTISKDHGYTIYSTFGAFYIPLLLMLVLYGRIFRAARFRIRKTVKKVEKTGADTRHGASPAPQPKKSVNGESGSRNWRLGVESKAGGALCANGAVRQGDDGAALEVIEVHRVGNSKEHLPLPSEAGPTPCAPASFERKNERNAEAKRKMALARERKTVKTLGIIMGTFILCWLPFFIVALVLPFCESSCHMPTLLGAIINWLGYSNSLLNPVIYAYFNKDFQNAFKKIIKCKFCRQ

[9] = biological target: Sodium-dependent serotonin transporter (Homo sapiens, UniProt P31645)
Mu-type opioid receptor = Mu-type opioid receptor (Homo sapiens, UniProt P35372); assay: biochemical; assay type: functional
[10] = biological target: Growth hormone secretagogue receptor type 1 (Homo sapiens, UniProt Q92847)
Note: assay procedure not described here.

Mu-type opioid receptor, sequence (P35372 whole entry): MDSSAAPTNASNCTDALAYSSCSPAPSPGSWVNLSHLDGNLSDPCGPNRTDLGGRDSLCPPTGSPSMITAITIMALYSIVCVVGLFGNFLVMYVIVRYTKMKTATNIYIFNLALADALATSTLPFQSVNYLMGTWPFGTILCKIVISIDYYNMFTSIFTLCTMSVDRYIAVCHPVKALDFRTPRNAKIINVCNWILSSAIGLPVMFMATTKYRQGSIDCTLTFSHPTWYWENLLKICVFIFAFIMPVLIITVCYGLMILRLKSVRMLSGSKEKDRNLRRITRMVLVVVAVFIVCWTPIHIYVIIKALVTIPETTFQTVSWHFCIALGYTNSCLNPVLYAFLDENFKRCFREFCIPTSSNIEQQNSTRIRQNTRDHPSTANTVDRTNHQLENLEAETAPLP
D(3) dopamine receptor, sequence (P35462 whole entry): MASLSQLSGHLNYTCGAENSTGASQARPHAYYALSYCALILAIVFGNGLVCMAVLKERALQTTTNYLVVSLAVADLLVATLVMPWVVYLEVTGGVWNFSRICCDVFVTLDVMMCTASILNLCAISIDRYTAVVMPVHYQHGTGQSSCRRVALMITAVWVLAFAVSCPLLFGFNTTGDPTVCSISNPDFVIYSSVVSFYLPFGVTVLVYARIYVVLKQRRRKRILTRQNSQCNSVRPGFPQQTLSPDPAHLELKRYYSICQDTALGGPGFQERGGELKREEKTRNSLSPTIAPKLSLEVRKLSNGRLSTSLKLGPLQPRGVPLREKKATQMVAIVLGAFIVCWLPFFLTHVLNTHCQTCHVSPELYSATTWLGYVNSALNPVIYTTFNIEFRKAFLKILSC
Sodium-dependent noradrenaline transporter, sequence (P23975 whole entry): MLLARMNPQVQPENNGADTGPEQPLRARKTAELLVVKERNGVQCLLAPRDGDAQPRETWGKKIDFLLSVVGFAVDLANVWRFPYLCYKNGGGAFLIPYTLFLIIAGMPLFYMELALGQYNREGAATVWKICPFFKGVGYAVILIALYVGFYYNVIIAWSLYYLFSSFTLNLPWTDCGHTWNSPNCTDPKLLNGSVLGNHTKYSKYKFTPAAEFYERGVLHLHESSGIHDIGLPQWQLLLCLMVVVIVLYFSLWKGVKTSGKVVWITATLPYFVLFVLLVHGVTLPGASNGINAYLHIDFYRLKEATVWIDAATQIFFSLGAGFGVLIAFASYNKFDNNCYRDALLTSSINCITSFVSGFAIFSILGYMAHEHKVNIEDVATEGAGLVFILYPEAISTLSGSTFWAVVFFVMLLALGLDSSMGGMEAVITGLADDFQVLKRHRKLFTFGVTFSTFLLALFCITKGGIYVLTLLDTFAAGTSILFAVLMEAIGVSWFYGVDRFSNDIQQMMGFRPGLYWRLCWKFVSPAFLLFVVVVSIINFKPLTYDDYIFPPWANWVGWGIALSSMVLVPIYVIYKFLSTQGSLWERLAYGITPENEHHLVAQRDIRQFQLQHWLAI
Sodium-dependent serotonin transporter, sequence (P31645 whole entry): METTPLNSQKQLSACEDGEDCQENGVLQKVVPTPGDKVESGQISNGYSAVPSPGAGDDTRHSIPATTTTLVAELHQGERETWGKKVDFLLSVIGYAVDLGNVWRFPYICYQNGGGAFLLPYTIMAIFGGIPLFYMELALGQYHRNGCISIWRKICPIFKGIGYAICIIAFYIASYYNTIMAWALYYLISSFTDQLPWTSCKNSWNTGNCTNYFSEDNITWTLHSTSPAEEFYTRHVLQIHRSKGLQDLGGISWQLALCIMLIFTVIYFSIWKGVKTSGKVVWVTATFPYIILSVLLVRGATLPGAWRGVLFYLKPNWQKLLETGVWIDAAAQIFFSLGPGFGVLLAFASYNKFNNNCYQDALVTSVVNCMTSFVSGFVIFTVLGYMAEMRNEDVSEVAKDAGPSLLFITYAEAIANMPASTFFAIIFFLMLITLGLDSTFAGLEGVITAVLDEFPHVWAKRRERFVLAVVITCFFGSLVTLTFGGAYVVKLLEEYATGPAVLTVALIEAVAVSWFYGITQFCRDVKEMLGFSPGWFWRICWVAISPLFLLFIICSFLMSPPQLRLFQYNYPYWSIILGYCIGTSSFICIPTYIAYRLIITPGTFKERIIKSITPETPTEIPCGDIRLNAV
Voltage-gated inwardly rectifying potassium channel KCNH2, sequence (Q12809 whole entry): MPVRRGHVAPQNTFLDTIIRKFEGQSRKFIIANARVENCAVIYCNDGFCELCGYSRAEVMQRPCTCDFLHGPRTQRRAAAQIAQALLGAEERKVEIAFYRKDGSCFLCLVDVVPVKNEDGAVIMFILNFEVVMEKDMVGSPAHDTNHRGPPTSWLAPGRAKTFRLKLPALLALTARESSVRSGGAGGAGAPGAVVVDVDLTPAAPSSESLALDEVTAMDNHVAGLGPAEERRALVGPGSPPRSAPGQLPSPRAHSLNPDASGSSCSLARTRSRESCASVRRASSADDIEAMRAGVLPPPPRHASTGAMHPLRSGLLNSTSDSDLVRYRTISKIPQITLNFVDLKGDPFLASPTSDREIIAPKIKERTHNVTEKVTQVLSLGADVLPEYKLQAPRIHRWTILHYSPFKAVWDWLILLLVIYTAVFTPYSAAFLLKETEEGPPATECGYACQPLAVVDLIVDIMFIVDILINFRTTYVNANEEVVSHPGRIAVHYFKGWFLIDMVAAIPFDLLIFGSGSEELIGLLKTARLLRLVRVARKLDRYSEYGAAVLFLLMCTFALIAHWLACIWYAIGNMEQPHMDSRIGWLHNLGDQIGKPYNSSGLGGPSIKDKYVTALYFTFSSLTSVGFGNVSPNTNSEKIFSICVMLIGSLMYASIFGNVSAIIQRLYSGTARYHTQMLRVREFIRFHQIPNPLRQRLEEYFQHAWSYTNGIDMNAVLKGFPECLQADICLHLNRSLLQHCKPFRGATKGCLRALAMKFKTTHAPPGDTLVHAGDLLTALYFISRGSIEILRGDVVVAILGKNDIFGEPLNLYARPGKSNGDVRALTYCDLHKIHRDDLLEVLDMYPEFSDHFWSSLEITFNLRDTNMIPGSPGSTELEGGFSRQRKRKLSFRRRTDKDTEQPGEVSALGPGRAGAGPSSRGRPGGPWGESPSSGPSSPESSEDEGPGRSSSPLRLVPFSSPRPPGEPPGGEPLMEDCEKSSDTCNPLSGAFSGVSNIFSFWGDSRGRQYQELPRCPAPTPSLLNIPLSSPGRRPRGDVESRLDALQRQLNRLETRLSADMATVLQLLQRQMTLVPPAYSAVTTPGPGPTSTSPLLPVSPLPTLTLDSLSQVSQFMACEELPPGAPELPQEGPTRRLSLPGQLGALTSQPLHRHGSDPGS
cGMP-inhibited 3',5'-cyclic phosphodiesterase 3A, sequence (Q14432 whole entry): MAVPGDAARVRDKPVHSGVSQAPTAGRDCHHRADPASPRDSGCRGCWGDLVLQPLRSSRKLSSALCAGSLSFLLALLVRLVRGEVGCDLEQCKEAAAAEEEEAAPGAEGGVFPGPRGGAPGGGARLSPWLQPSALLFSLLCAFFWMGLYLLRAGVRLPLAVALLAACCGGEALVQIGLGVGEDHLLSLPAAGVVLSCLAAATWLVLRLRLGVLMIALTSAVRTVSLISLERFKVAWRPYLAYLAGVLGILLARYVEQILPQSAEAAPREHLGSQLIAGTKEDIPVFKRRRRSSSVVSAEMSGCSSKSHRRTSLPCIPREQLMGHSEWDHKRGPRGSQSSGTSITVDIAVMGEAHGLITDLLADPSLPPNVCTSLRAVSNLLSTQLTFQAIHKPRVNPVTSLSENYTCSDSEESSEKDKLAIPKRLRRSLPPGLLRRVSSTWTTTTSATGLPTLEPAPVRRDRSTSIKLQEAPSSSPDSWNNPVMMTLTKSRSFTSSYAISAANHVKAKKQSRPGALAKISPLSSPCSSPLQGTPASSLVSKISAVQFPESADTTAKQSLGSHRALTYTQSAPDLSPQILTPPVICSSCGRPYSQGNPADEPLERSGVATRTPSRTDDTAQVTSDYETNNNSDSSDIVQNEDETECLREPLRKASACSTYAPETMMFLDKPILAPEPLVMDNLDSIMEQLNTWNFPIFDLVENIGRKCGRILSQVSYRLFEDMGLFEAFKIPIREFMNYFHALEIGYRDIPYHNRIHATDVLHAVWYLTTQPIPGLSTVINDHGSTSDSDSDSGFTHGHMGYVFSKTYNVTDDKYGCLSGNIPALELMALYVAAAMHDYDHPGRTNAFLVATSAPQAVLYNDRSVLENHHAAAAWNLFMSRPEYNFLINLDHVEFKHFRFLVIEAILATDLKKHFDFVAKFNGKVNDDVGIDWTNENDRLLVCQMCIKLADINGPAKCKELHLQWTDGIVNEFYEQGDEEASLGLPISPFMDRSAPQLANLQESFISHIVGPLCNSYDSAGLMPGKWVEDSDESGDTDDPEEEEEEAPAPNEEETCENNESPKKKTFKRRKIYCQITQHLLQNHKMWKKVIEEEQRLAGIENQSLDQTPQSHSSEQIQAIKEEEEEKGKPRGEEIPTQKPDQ
Beta-1 adrenergic receptor, sequence (P08588 whole entry): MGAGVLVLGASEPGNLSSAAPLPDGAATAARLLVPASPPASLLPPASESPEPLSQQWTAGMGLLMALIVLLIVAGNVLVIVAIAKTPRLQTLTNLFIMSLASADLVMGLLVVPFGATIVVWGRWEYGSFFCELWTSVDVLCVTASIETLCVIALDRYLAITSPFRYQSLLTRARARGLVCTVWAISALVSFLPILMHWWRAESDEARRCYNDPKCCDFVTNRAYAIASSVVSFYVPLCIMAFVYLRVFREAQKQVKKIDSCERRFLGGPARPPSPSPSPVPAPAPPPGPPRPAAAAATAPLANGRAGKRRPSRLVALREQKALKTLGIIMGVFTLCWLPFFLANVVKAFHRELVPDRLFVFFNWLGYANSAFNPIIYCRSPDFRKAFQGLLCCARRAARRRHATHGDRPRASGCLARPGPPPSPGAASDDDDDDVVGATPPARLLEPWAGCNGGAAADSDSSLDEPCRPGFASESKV

SMILES	AC50 (Adenosine receptor A2a)	AC50 (Endothelin-1 receptor)	AC50 [1]	AC50 [2]	AC50 [3]	AC50 [4]	AC50 [5]	AC50 (Adenosine receptor A3)	AC50 [6]	AC50 [7]	AC50 (D(3) dopamine receptor)	AC50 [8]	AC50 [9]	AC50 (Mu-type opioid receptor)	AC50 [10]
N#Cc1ccccc1-c1cc(-c2ccccn2)cn(-c2ccccc2)c1=O	> 30 µM	> 30 µM	> 30 µM	13 µM	> 30 µM	> 30 µM	> 30 µM	> 30 µM	> 30 µM	> 30 µM	> 30 µM	> 30 µM	> 30 µM	> 30 µM	> 30 µM
N=C(N)NCCCCCCC(=O)NC(O)C(=O)NCCCCNCCCN (stereo not drawn)	> 30 µM	> 30 µM	> 30 µM	> 30 µM	> 30 µM	> 30 µM	> 30 µM	> 30 µM	> 30 µM	> 30 µM	> 30 µM	> 30 µM	> 30 µM	> 30 µM	> 30 µM
C=C[C@@]1(C)CC(=O)[C@]2(O)[C@@]3(C)[C@@H](O)CCC(C)(C)[C@@H]3[C@H](OC(=O)CCN(C)C)[C@H](OC(C)=O)[C@@]2(C)O1	> 30 µM	> 30 µM	> 30 µM	> 30 µM	> 30 µM	7.8 µM	> 30 µM	> 30 µM	> 30 µM	> 30 µM	> 30 µM	> 30 µM	> 30 µM	> 30 µM	> 30 µM
O=C(CCCN1CCC(n2c(O)nc3ccccc32)CC1)c1ccc(F)cc1 [BENPERIDOL]	> 30 µM	> 30 µM	12 µM	> 30 µM	> 30 µM	0.11 µM	8.5 µM	> 30 µM	> 30 µM	> 30 µM	0.0053 µM	> 30 µM	> 30 µM	> 30 µM	17 µM
CCN(CC)C(=O)C1CN2CCc3cc(OC)c(OC)cc3C2CC1OC(C)=O (stereo not drawn) [BENZQUINAMIDE]	> 30 µM	> 30 µM	> 30 µM	> 30 µM	> 30 µM	> 30 µM	> 30 µM	> 30 µM	> 30 µM	> 30 µM	14.4 µM	> 30 µM	> 30 µM	> 30 µM	> 30 µM
CCC(=O)OCC(=O)[C@@]1(OC(=O)CC)[C@@H](C)C[C@H]2[C@@H]3CCC4=CC(=O)C=C[C@]4(C)[C@@]3(F)[C@@H](O)C[C@@]21C [BETAMETHASONE DIPROPIONATE]	> 30 µM	> 30 µM	> 30 µM	> 30 µM	> 30 µM	> 30 µM	> 30 µM	24 µM	> 30 µM	> 30 µM	> 30 µM	> 30 µM	> 30 µM	> 30 µM	> 30 µM
CCCCC1(CC)C(=O)NC(=O)NC1=O [BUTETHAL]	> 30 µM	> 30 µM	> 30 µM	> 30 µM	> 30 µM	> 30 µM	> 30 µM	> 30 µM	> 30 µM	> 30 µM	> 30 µM	> 30 µM	> 30 µM	> 30 µM	> 30 µM
CCOC(=O)NNc1ccc(N(CC)CC(C)O)nn1 (stereo not drawn) [CADRALAZINE]	> 30 µM	> 30 µM	> 30 µM	> 30 µM	> 30 µM	> 30 µM	> 30 µM	> 30 µM	> 30 µM	> 30 µM	> 30 µM	> 30 µM	> 30 µM	> 30 µM	> 30 µM
C=CC1=C(C(=O)O)N2C(=O)[C@@H](NC(=O)/C(=N\OCC(=O)O)c3csc(N)n3)[C@H]2SC1 [CEFIXIME]	> 30 µM	> 30 µM	> 30 µM	> 30 µM	> 30 µM	> 30 µM	> 30 µM	> 30 µM	> 30 µM	> 30 µM	–	> 30 µM	> 30 µM	> 30 µM	> 30 µM
CCCC[C@H](C)C[C@H](O)/C=C/[C@H]1[C@H](O)CC(=O)[C@@H]1CCCC/C=C/C(=O)O [LIMAPROST]	> 30 µM	> 30 µM	> 30 µM	> 30 µM	> 30 µM	> 30 µM	> 30 µM	> 30 µM	> 30 µM	> 30 µM	> 30 µM	–	> 30 µM	> 30 µM	> 30 µM
Cc1cc2nc3c(=O)[nH]c(=O)nc-3n(C[C@H](O)[C@H](O)[C@H](O)COP(=O)(O)O)c2cc1C [RIBOFLAVIN 5'-PHOSPHATE]	> 30 µM	> 30 µM	> 30 µM	> 30 µM	> 30 µM	–	> 30 µM	> 30 µM	–	> 30 µM	> 30 µM	–	> 30 µM	> 30 µM	> 30 µM
CN1CCN(c2c(F)cc3c(=O)c(C(=O)O)cn4c3c2SCC4)CC1 [RUFLOXACIN]	> 30 µM	> 30 µM	–	> 30 µM	> 30 µM	> 30 µM	> 30 µM	> 30 µM	> 30 µM	> 30 µM	> 30 µM	> 30 µM	> 30 µM	> 30 µM	> 30 µM
COc1cc2c(Nc3ccc(Br)cc3F)ncnc2cc1OCC1CCN(C)CC1 [VANDETANIB]	> 30 µM	> 30 µM	> 30 µM	> 30 µM	> 10 µM	–	> 30 µM	23 µM	> 30 µM	> 30 µM	20 µM	> 30 µM	3.4 µM	> 30 µM	26 µM
